Earlier results, collected in US9895311B2, “Foam-forming compositions and methods for delivering an active to a body cavity” (Pharmiva AB, priority 2014, dated 2018).

Key:
[1] = system: anaerobic bacteria involved in vaginal and urinary tube infections; details: in 7 seconds, laboratory conditions (Block 1983)
[2] = system: several species; details: even at low pH (Attassi, Servin 2010)

## OO [hydrogen peroxide]
[1]
  log reduction: 2 log
[2]
  Concentration required for inhibition: ≥ 20 mM
